Data reported in US20060148871A1, “Metabolic stabilization of substituted adamantane” (priority 2005, published 2006).

Experiments:
Format in all cases: in vitro ADME
[1] = In vitro metabolic half-life study, mouse liver microsomes; conditions: 1 μM
Method: (§1) Example 5 (1 μM) was incubated with microsomal protein (0.5-1.0 mg/ml) in 50 mM potassium phosphate buffer (pH 7.4). After 5 minutes, preincubation at 37° C. in a shaking water bath, the enzyme reaction was initiated by the addition of 1 mM NADPH. Aliquots (200 μl) were removed and added to 100 μl of ACN/MeOH (1:1, v/v), containing 0.5 μM of IS, at the following time points: 0, 5, 10, 15, 20 and 30 min. Samples were then centrifuged at 14000×g for 10 min and the supernatant was analyzed by LC/MS. Additionally, Example 5 (1 μM) was also incubated with hepatocytes in complete culture medium (Waymouth MB 752/1). The reaction was terminated at 0, 1, 3 and 6 hours with the addition of 250 μl of ACN/MeOH (1:1, v/v). Samples were centrifuged and the supernatant was analyzed by LC/MS as described above. […]
(§2) The parent remaining in the incubation mixture was determined by LC/MS. […] A Luna C8(2) (50×2.0 mm, particle size 3 μm, Phenomenex, Torrance, Calif., USA) was used to quantify each compound at ambient temperature. […]
(§3) In vitro half-life of substrate depletion was determined and converted to hepatic intrinsic clearance (Obach R Scott: Prediction of human clearance of twenty-nine drugs from hepatic microsomal intrinsic clearance data: an examination of in vitro half-life approach and nonspecific binding to microsomes. Drug metabolism and Disposition. 1999, 27:1350-1359).

[2] = In vitro metabolic half-life study, mouse hepatocytes; conditions: 1 μM
Method: as §1, §2, §3

[3] = In vitro metabolic half-life study, monkey liver microsomes
Method: as §1, §2, §3

[4] = In vitro metabolic half-life study, human liver microsomes; conditions: 1 μM
Method: as §1, §2, §3

[5] = In vitro metabolic half-life study, rat liver microsomes; conditions: 1 μM
Method: as §1, §2, §3

[6] = In vitro metabolic half-life study, dog hepatocytes; conditions: 1 μM
Method: as §1, §2, §3

[7] = In vitro metabolic half-life study, rat hepatocytes; conditions: 1 μM
Method: as §1, §2, §3

[8] = In vitro metabolic half-life study, human hepatocytes; conditions: 1 μM
Method: as §1, §2, §3

[9] = Metabolic stability screen, rat liver microsomes; conditions: 10 μM substrate, 30 min, 37° C., 1 mM NADPH
Method: (§4) Each substrate (10 μM) was incubated with microsomal protein (0.1-0.5 mg/ml) in 50 mM potassium phosphate buffer (pH 7.4) in 48-Well plate. The enzyme reaction was initiated by the addition of 1 mM NADPH, then incubated at 37° C. in a Forma Scientific incubator (Marietta, Ohio, USA) with gentle shaking. The reactions were quenched by the addition of 800 μl of ACN/MeOH (1:1, v/v), containing 0.5 μM of internal standard (IS), after 30 min incubation. Samples were then filtered by using Captiva 96-Well Filtration (Varian, Lake Forest, Calif., USA) and analyzed by LC/MS (mass spectrometry). Liver microsomal incubations were conducted in duplicate.
as §2
(§5) The peak area ratios (each substrate over IS) at each incubation time were expressed as the percentage of the ratios (each substrate over IS) of the control samples (0 min incubation). The parent remaining in the incubation mixture was expressed as the percentage of the values at 0 min incubation. The percentage turnover is calculated using the following equation (Y% turnover=100% […]−X% parent remaining) and is recorded as the percentage turnover in the Table 1.

[10] = In vitro metabolic half-life study, dog liver microsomes
Method: as §1, §2, §3

[11] = Metabolic stability screen, human liver microsomes; conditions: for HLM % turnover: 10 μM substrate, 30 min, 37° C., 1 mM NADPH
Method: as §4
The parent remaining in the incubation mixture was determined by LC/MS. The LC/S system consisted of an Agilent 1100 series (Agilent Technologies, Waldbronn, Germany) and API 2000 (MDS SCIEX, Ontario, Canada). A Luna C8(2) (50×2.0 mm, particle size 3 μm, Phenomenex, Torrance, Calif., USA) was used to quantify each compound at ambient temperature. The mobile phase consisted of (A): 10 mM NH4AC (pH 3.3) and […]: 100% ACN and was delivered at a flow rate of 0.2 ml/min. Elution was achieved using a linear gradient of 0-100% B over 3 min, then held 100% B for 4 min, and returned to 100% A in 1 min. The column was equilibrated for 7 min before the next injection.
as §5

[12] = In vitro metabolic half-life study, monkey hepatocytes; conditions: 1 μM
Method: as §1, §2, §3

[13] = Metabolic stability screen, mouse liver microsomes; conditions: 10 μM substrate, 30 min, 37° C., 1 mM NADPH
Method: as §4, §2, §5

For CC(C)(C(=O)NC1C2CC3CC1CC(C(=O)O)(C3)C2)N1CCN(c2ccc(C(F)(F)F)cn2)CC1 (centres unmarked) [Example 5, E-4-{2-Methyl-2-[4-(5-trifluoromethyl-pyridin-2-yl)-piperazin-1-yl]-propionylamino}-adamantane-1-carboxylic acid], the “Liver microsomal intrinsic clearance (CLint)” value [1] was 127 mL/min/kg, the “Hepatocyte intrinsic clearance (CLint)” value [2] was 13.7 mL/min/kg and the “Metabolic stability in liver microsomes, in words” value ([3]; monkey liver microsomes) was “excellent metabolic stability”. For the same molecule, the “Liver microsomal intrinsic clearance (CLint)” value ([3]; monkey microsomes, 1 μM) was 31.5 mL/min/kg, the “Liver microsomal intrinsic clearance (CLint)” value [4] was 4.83 mL/min/kg and the “Liver microsomal intrinsic clearance (CLint)” value [5] was 40 mL/min/kg. The “Hepatocyte intrinsic clearance (CLint)” value [6] was 3.67 mL/min/kg, the “Hepatocyte intrinsic clearance (CLint)” value [7] was 5.17 mL/min/kg and the “Hepatocyte intrinsic clearance (CLint)” value [8] was 1.5 mL/min/kg. For the same molecule, the RLM % turnover [9] was 0%, the “Metabolic stability in liver microsomes, in words” value ([10]; dog liver microsomes) was “excellent metabolic stability” and the “Liver microsomal intrinsic clearance (CLint)” value ([10]; dog microsomes, 1 μM) was 7.5 mL/min/kg. For the same molecule, the HLM % turnover [11] was 0%, the “Hepatocyte intrinsic clearance (CLint)” value [12] was 4.67 mL/min/kg and the MLM % turnover [13] was 0%.
For O=C(NC1C2CC3CC(C2)CC1C3)C1(c2ccc(Cl)cc2)CC1 (centres unmarked) [Example 4, N-2-adamantyl-1-(4-chlorophenyl)cyclopropanecarboxamide], the “Metabolism in human liver microsomes (HLM), in words” value (from here on “Metabolism in human liver microsomes”) [11] was “rapidly metabolized” and the HLM % turnover [11] was 68%.
With O=C(NC1C2CC3CC(C2)CC1C3)C1(c2ccccc2)CC1 (centres unmarked) [Example 3, N-2-adamantyl-1-phenylcyclopropanecarboxamide] the “Metabolism in human liver microsomes” value [11] was “rapidly metabolized” and the HLM % turnover [11] was 62%.
For CC(C)(C(=O)NC1C2CC3CC(C2)CC1C3)c1ccc(Cl)cc1 (centres unmarked) [Example 2, N-2-adamantyl-2-(4-chlorophenyl)-2-methylpropanamide], the “Metabolism in human liver microsomes” value [11] was “rapidly metabolized” and the HLM % turnover [11] was 84%.
With CC(C)(C(=O)NC1C2CC3CC(C2)CC1C3)c1ccccc1 (centres unmarked) [Example 1, N-2-adamantyl-2-methyl-2-phenylpropanamide] the “Metabolism in human liver microsomes” value [11] was “rapidly metabolized” and the HLM % turnover [11] was 83%.
